Assay results as given in ChEMBL document CHEMBL2169792, “Synthesis of new 4-thiazolidinone-, pyrazoline-, and isatin-based conjugates with promising antitumor activity” (J Med Chem, 2012).
Active and inactive are the calls of the source. No cut-off for these calls is given here.

Legend:
TK-10 = test: Cytotoxicity against human TK10 cells assessed as cell growth at 10 uM after 48 hrs by SRB assay; assay type: functional; settings: TK-10, 48 h, read-out: Activity
[1] = Cytotoxicity against human non-small cell lung cancer cells after 48 hrs by SRB assay; assay type: functional; settings: Cancer cell lines; for CC50: read-out: LC50 (the source's name)
SF-539 = test: Cytotoxicity against human SF539 cells assessed as cell growth at 10 uM after 48 hrs by SRB assay; assay type: functional; settings: SF-539, 48 h, read-out: Activity
[2] = Cytotoxicity against human colon cancer cells after 48 hrs by SRB assay; assay type: functional; settings: Cancer cell lines
[3] = Cytotoxicity against human ovarian cancer cells after 48 hrs by SRB assay; assay type: functional; settings: Cancer cell lines
[4] = Cytotoxicity against human leukemia cells after 48 hrs by SRB assay; assay type: functional; settings: Leukemia cell; for CC50: read-out: LC50 (the source's name)
[5] = Cytotoxicity against human renal cancer cells after 48 hrs by SRB assay; assay type: functional; settings: Cancer cell lines
[6] = Cytotoxicity against human melanoma cells after 48 hrs by SRB assay; assay type: functional; settings: Melanoma cell; for CC50: read-out: LC50 (the source's name)
Mus musculus = test: Antitumor activity in ip dosed athymic nude mouse hollow fiber model assessed as reduction of viable cell mass; assay type: functional, organism-based
[7] = Cytotoxicity against human breast cancer cells after 48 hrs by SRB assay; assay type: functional; settings: Cancer cell lines
[8] = Cytotoxicity against human CNS cancer cells after 48 hrs by SRB assay; assay type: functional; settings: Cancer cell lines
[9] = Toxicity in mouse; assay type: organism-based; settings: in vivo
[10] = Cytotoxicity against human prostate cancer cells after 48 hrs by SRB assay; assay type: functional; settings: Cancer cell lines
HCT-116 = test: Cytotoxicity against human HCT116 cells assessed as cell growth at 10 uM after 48 hrs by SRB assay; assay type: functional; settings: HCT-116, 48 h, read-out: Activity

SMILES	GI50 [1] [µM]	TGI [1] [µM]	CC50 [1] [µM]	GI50 [2] [µM]	LC50 (concentration lethal to 50% of cells) [2] [µM]	TGI [2] [µM]	GI50 [3] [µM]	LC50 (concentration causing 50% net cell kill) [3] [µM]	TGI [3] [µM]	GI50 [4] [µM]	TGI [4] [µM]	CC50 [4] [µM]	GI50 [5] [µM]	LC50 [5] [µM]	TGI [5] [µM]	GI50 [6] [µM]	TGI [6] [µM]	CC50 [6] [µM]	GI50 [7] [µM]	LC50 (concentration causing 50% net cell kill) [7] [µM]	further results
COc1ccc(C2CC(c3ccccc3)=NN2C2=NC(=O)/C(=C3\C(=O)N(CC(=O)O)c4ccccc43)S2)cc1 (centres undefined)																					growth at 10 µM (TK-10): 97.3%
COc1ccc(C2CC(c3ccccc3)=NN2C2=NC(=O)/C(=C3\C(=O)Nc4ccc(Br)cc43)S2)cc1 (centres undefined)	0.2	0.51	3.27	0.19	1.07	0.39	0.23	23.4	3.63	0.25	4.23	51	0.18	1.27	0.36	0.21	0.55	5.01	0.2	26.5	growth at 10 µM (SF-539): -55.1%; Activity (Mus musculus): inactive; TGI [7]: 0.48 µM; GI50 [8]: 0.18 µM; LC50 (concentration giving 50% net cell kill) [8]: 6.48 µM; TGI [8]: 0.39 µM; MTD [9]: > 400 mg/kg; GI50 [10]: 0.24 µM; LC50 [10]: 39.5 µM; TGI [10]: 0.66 µM
O=C1N=C(N2N=C(c3ccccc3)CC2c2ccccc2O)S/C1=C1/C(=O)Nc2ccccc21 (centres undefined)	2.03	4.73	57.2	1.99	33.4	4.22	2.41	81.5	36.6	3.19	48.8	100	2.07	55.8	17.8	2.04	4.4	60.8	2.09	64.6	growth at 10 µM (HCT-116): -37.4%; TGI [7]: 4.77 µM; GI50 [8]: 2.13 µM; LC50 (concentration giving 50% net cell kill) [8]: 68.1 µM; TGI [8]: 5.37 µM; GI50 [10]: 2.05 µM; LC50 [10]: 54.7 µM; TGI [10]: 4.35 µM
